Source: patent publication US11608338B2, “Imidazolonylquinolines and the use thereof as ATM kinase inhibitors” (priority 2015, dated 2023)

Legend:
Type in all cases: biochemical
[1] = molecular target: PI3K p110α/p85α (human) (Homo sapiens (Human), UniProt P42336); experiment: PI3K p110α/p85α (human), non-radioactive assay (HTRF); details: ATM versus PI3Kalpha
Method: PI3K p110α/p85α (Human), Non-Radioactive Assay
(§1) PI3K p110α/p85α (human) was incubated in an assay buffer comprising 10 μM phosphatidylinositol 4,5-bisphosphate and MgATP (concentration as necessary). The reaction was initiated by addition of MgATP solution. After incubation at room temperature for 40 minutes, the reaction was stopped by addition of a solution consisting of EDTA and biotinylated phosphatidylinositol 3,4,5-trisphosphate. Finally, the detection buffer, consisting of a europium-labelled anti-GST monoclonal antibody, a GST-labelled GRP1 PH domain and streptavidin allophycocyanin, was added. The plate was read out via homogeneous time-resolved fluorescence (HTRF) and the corresponding signals were evaluated via the formula HTRF=10000×(Em665 nm/Em620 nm).

[2] = molecular target: PI3K p110β/p85α (human) (Homo sapiens (Human), UniProt P42338); experiment: PI3K p110β/p85α (human), non-radioactive assay (HTRF); details: ATM versus PI3Kbeta
Chain of PI3K p110β/p85α (human) (P42338 whole entry): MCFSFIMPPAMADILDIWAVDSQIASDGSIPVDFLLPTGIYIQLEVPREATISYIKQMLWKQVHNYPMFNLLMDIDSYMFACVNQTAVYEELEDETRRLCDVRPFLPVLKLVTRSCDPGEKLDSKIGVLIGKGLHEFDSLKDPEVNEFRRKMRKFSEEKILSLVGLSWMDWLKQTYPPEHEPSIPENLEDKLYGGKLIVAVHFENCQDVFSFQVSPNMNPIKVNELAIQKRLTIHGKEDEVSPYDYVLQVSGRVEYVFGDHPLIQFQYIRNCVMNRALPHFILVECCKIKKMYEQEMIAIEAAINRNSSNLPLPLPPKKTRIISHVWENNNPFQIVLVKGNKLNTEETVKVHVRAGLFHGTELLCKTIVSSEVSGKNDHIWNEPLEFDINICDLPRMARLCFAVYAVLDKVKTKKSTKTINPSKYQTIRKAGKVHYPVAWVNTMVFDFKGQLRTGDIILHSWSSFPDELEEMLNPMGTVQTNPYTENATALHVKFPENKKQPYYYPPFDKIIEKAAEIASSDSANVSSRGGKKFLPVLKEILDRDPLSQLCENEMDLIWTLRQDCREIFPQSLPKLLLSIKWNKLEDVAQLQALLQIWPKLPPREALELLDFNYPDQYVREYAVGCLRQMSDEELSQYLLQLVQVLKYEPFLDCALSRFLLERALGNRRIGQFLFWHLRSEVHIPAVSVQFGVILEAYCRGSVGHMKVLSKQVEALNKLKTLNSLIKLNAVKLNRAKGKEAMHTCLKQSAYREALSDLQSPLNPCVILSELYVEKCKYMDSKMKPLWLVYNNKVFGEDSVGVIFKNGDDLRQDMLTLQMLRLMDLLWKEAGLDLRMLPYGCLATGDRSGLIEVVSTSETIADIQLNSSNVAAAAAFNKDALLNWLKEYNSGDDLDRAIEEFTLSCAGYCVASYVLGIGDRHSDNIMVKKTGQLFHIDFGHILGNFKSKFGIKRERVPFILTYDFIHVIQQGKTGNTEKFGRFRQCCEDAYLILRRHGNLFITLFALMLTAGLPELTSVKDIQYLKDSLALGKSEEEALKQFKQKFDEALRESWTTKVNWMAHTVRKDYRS
Chain of PI3K p110β/p85α (human) (P27986 whole entry partner): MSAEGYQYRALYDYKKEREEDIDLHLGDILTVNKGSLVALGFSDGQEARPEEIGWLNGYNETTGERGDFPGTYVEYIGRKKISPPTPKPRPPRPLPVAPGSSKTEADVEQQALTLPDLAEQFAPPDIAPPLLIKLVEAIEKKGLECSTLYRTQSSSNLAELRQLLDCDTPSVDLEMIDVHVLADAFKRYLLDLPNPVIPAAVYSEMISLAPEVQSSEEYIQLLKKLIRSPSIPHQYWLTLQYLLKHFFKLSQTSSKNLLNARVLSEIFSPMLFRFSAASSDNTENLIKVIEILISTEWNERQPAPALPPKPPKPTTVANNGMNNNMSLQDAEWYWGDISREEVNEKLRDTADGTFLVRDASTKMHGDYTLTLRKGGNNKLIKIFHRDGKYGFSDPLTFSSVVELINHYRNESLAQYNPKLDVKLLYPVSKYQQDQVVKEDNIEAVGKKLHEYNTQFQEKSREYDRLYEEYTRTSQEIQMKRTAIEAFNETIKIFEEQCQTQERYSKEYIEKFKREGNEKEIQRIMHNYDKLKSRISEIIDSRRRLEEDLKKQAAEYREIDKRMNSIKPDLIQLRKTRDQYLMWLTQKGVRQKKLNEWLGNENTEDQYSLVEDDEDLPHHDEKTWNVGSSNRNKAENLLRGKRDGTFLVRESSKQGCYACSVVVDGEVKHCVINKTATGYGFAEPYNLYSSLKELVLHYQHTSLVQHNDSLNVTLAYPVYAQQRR
Method: PI3K p110β/p85α (Human), Non-Radioactive Assay
as §1, with “p110β/p85α” for “p110α/p85α”, “After an” for “After”, “incubation time of 30 min” for “incubation”, “temperature,” for “temperature for 40 minutes,”

[3] = molecular target: PI3K p110δ/p85α (human) (Homo sapiens (Human), UniProt O00329); experiment: PI3K p110δ/p85α (human), non-radioactive assay (HTRF); details: ATM versus PI3Kdelta
Chain of PI3K p110δ/p85α (human) (O00329 whole entry): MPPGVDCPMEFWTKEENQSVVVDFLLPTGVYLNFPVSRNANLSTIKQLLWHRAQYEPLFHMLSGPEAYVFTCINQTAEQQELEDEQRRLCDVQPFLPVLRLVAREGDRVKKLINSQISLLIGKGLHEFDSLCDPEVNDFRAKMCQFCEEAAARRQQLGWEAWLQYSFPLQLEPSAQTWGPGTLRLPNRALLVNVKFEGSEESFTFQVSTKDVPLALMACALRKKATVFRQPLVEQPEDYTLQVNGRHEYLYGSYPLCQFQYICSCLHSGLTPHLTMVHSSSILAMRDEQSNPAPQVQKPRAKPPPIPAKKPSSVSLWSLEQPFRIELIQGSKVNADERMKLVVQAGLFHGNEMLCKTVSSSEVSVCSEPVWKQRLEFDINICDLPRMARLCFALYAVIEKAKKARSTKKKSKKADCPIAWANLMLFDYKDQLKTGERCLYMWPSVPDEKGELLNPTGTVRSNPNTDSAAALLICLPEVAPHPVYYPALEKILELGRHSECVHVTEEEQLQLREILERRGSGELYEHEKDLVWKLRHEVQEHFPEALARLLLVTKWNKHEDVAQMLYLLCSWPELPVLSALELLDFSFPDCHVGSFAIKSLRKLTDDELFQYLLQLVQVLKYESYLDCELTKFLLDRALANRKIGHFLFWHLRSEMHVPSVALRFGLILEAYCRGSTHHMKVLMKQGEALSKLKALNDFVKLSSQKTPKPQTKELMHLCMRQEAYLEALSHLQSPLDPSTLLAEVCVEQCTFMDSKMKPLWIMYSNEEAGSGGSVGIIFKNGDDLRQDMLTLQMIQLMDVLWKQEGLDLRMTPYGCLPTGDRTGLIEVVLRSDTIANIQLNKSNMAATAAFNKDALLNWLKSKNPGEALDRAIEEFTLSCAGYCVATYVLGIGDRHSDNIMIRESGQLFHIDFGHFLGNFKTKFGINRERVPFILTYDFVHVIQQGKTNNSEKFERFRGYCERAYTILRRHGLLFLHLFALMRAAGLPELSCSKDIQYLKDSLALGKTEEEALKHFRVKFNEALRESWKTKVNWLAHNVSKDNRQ
Chain of PI3K p110δ/p85α (human) (P27986 whole entry partner): as the sequence (P27986 whole entry partner) above
Method: PI3K p110δ/p85α (Human), Non-Radioactive Assay
as §1, with “p110δ/p85α” for “p110α/p85α”, “After an” for “After”, “incubation time of 30 min” for “incubation”, “temperature,” for “temperature for 40 minutes,”

[4] = molecular target: PI3K (p120γ) (human) (Homo sapiens (Human), UniProt P48736); experiment: PI3K (p120γ) (human), non-radioactive assay (HTRF); details: ATM versus PI3Kgamma
Chain of PI3K (p120γ) (human) (P48736 whole entry): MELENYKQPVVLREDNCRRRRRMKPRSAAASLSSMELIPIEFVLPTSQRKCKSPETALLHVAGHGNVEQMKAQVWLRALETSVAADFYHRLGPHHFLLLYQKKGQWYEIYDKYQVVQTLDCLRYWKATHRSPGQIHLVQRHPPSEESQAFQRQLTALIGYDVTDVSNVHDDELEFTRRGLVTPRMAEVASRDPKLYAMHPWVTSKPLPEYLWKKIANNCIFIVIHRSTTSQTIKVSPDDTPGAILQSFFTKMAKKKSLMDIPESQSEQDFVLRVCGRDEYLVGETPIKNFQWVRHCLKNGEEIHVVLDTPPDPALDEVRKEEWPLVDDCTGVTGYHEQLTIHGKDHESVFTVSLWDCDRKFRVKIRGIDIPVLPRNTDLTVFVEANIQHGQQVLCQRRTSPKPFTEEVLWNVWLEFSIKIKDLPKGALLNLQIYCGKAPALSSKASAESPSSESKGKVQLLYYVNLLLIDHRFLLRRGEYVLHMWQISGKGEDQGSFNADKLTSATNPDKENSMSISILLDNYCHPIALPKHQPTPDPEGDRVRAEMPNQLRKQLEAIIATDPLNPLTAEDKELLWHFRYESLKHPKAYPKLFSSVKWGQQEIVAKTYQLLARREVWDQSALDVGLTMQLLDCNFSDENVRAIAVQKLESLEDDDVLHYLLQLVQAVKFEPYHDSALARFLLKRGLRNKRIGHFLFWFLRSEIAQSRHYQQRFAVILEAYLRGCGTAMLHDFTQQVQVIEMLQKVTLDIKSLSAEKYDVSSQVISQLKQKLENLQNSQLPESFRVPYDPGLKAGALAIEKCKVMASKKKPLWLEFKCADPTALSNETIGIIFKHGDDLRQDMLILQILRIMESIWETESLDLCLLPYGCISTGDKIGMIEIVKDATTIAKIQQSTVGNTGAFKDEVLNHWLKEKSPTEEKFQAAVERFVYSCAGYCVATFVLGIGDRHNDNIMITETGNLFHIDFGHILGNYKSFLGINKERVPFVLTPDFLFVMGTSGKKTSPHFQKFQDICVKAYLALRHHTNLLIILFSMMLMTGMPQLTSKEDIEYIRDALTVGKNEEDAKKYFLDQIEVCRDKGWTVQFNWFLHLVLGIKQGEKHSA
Method: PI3K (p120γ) (Human), Non-Radioactive Assay
as §1, with “(p120γ)” for “p110α/p85α”, “After an” for “After”, “incubation time of 30 min” for “incubation”, “temperature,” for “temperature for 40 minutes,”, “nm). • MgATP=magnesium 5′-O-[hydroxy({[(hydroxyphosphinato)oxy]phosphinato}oxy)phosphoryl]adenosine • MgCl2=magnesium dichloride • EGTA=ethylene glycol bis(aminoethyl ether) N,N,N′,N′-tetraacetic acid • Tween 20=polysorbate 20 Medicament/Pharmaceutical Composition” for “nm).”

[5] = molecular target: mTOR (human) (Homo sapiens (Human), UniProt P42345); experiment: mTOR (human) radiometric kinase assay; details: ATM versus mTOR
Method: Furthermore, the effect, in particular inhibition, of other kinases and thus the selectivity of the compounds according to the invention can be determined with the aid of the following assay:
mTOR (human) was incubated with 50 mM HEPES pH 7.5, 1 mM EGTA, 0.01% Tween 20, 2 mg/ml of the substrate, 3 mM MnCl2 and [γ-^33P-ATP] (specific activity approximately 500 cpm/pmol, concentration as necessary). The reaction was initiated by addition of MgATP solution. After incubation at room temperature for 40 minutes, the reaction was stopped by addition of 3% phosphoric acid. 10 μl of the reaction solution were then transferred dropwise onto a P30 filtermat and washed three times for 5 min in 75 mM phosphoric acid and once in methanol, dried and evaluated by means of liquid scintillation counting.

Chain of PI3K p110α/p85α (human) (P42336 whole entry): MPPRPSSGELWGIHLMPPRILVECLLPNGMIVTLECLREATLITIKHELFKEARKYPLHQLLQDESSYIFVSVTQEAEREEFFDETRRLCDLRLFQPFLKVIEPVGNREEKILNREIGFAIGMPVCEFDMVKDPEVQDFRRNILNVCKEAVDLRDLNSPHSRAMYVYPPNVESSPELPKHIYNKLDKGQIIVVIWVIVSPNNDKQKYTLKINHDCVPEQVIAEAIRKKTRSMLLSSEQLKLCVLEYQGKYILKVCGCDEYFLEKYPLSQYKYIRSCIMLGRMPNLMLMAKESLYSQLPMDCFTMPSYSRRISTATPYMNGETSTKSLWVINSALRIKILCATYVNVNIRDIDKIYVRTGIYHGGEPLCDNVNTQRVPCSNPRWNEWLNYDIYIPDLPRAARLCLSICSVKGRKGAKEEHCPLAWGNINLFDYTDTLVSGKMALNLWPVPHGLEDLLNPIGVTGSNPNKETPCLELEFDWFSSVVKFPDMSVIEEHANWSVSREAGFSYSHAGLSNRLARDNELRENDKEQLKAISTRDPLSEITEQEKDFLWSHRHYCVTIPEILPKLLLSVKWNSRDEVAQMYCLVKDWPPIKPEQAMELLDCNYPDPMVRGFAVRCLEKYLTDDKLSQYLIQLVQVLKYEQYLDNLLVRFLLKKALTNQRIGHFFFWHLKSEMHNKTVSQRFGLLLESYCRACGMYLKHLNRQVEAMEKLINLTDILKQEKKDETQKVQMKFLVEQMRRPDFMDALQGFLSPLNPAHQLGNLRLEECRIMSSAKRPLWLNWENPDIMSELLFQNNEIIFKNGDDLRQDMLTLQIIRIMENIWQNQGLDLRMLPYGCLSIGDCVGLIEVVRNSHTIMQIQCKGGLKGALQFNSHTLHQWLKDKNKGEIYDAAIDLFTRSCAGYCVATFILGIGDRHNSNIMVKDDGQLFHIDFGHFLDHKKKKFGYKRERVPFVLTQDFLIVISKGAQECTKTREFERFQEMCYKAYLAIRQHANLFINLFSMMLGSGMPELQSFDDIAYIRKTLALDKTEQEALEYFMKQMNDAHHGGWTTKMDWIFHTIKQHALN
Chain of PI3K p110α/p85α (human) (P27986 whole entry partner): as the sequence (P27986 whole entry partner) above

COc1cc2ncc3[nH]c(=O)n(-c4ncc(F)cc4F)c3c2cc1-c1cn(C)nc1C [Example 108, 1-(3,5-Difluoropyridin-2-yl)-8-(1,3-dimethyl-1H-pyrazol-4-yl)-7-methoxy-1,3-dihydroimidazo[4,5-c]-quinolin-2-one]
at least 2000 times: ratio of IC50 (ATM) and IC50 (PI3Kalpha), selectivity with respect to PI3Kalpha [1] | ratio IC50 (ATM):IC50 (PI3Kbeta), selectivity with respect to PI3Kbeta [2] | ratio of IC50 (ATM) and IC50 (PI3Kdelta), selectivity with respect to PI3Kdelta [3] | ratio of IC50 (ATM) and IC50 (PI3Kgamma), selectivity with respect to PI3Kgamma [4]

CCc1cncc(F)c1-n1c(=O)n(C)c2cnc3cc(OC)c(-c4cn[nH]n4)cc3c21 [Example 125, 1-(3-Ethyl-5-fluoropyridin-4-yl)-7-methoxy-3-methyl-8-(2H-1,2,3-triazol-4-yl)-1,3-dihydroimidazo[4,5-c] quinolin-2-one]
at least 2000 times: ratio IC50 (ATM):IC50 (mTOR), selectivity with respect to mTOR [5] | ratio of IC50 (ATM) and IC50 (PI3Kalpha), selectivity with respect to PI3Kalpha [1] | ratio IC50 (ATM):IC50 (PI3Kbeta), selectivity with respect to PI3Kbeta [2] | ratio of IC50 (ATM) and IC50 (PI3Kdelta), selectivity with respect to PI3Kdelta [3] | ratio of IC50 (ATM) and IC50 (PI3Kgamma), selectivity with respect to PI3Kgamma [4]

COc1cc2ncc3c(c2cc1-c1ccc2nc(C)[nH]c2c1)n(-c1c(F)cncc1OC)c(=O)n3C [Example 136, 1-(3-Fluoro-5-methoxy-pyridin-4-yl)-7-methoxy-3-methyl-8-(2-methyl-3H-benzoimidazol-5-yl)-1,3-dihydroimidazo[4,5-c]-quinolin-2-one]
at least 2000 times: ratio IC50 (ATM):IC50 (mTOR), selectivity with respect to mTOR [5] | ratio IC50 (ATM):IC50 (PI3Kbeta), selectivity with respect to PI3Kbeta [2] | ratio of IC50 (ATM) and IC50 (PI3Kgamma), selectivity with respect to PI3Kgamma [4]

COc1ccc(-c2cc3c(cc2OC)ncc2c3n(-c3c(F)cncc3OC)c(=O)n2C)cn1 [Example 137, 1-(3-Fluoro-5-methoxy-pyridin-4-yl)-7-methoxy-8-(6-methoxypyridin-3-yl)-3-methyl-1,3-dihydroimidazo-[4,5-c]quinolin-2-one]
at least 2000 times: ratio IC50 (ATM):IC50 (PI3Kbeta), selectivity with respect to PI3Kbeta [2]

[2H]C([2H])([2H])Oc1cncc(F)c1-n1c(=O)n(C)c2cnc3cc(OC)c(-c4cnn(C)c4)cc3c21 [Example 145, 1-[3-Fluoro-5-(trideuterio-methoxy)-4-pyridyl]-7-methoxy-3-methyl-8-(1-methylpyrazol-4-yl)imidazo-[4,5-c]quinolin-2-one]
at least 2000 times: ratio IC50 (ATM):IC50 (mTOR), selectivity with respect to mTOR [5] | ratio IC50 (ATM):IC50 (PI3Kbeta), selectivity with respect to PI3Kbeta [2] | ratio of IC50 (ATM) and IC50 (PI3Kdelta), selectivity with respect to PI3Kdelta [3] | ratio of IC50 (ATM) and IC50 (PI3Kgamma), selectivity with respect to PI3Kgamma [4]

COc1ccc(-c2cc3c(cc2OC)ncc2c3n(-c3cn(C)nc3F)c(=O)n2C)cn1 [Example 159, 1-(3-Fluoro-1-methyl-1H-pyrazo1-4-yl)-7-methoxy-8-(6-methoxypyridin-3-yl)-3-methyl-1,3-dihydroimidazo-[4,5-c]quinolin-2-one]
at least 2000 times: ratio IC50 (ATM):IC50 (mTOR), selectivity with respect to mTOR [5] | ratio IC50 (ATM):IC50 (PI3Kbeta), selectivity with respect to PI3Kbeta [2]

COc1cc2ncc3c(c2cc1-c1cnn(C)c1)n(-c1ncc(OCS(C)(=O)=O)cc1F)c(=O)n3C [Example 201, 1-(3-Fluoro-5-methyl-sulfonylmethoxypyridin-2-yl)-7-methoxy-3-methyl-8-(1-methyl-1H-pyrazol-4-yl)-1,3-dihydroimidazo[4,5-c]-quinolin-2-one]
at least 2000 times: ratio IC50 (ATM):IC50 (mTOR), selectivity with respect to mTOR [5] | ratio of IC50 (ATM) and IC50 (PI3Kalpha), selectivity with respect to PI3Kalpha [1] | ratio IC50 (ATM):IC50 (PI3Kbeta), selectivity with respect to PI3Kbeta [2] | ratio of IC50 (ATM) and IC50 (PI3Kdelta), selectivity with respect to PI3Kdelta [3] | ratio of IC50 (ATM) and IC50 (PI3Kgamma), selectivity with respect to PI3Kgamma [4]
